Columns and labels:
[1] = test system: SETVI (green foxtail); experiment: Pre-emergence herbicidal activity, cool season; type: in vivo, Setaria viridis; settings: GR80 = lowest tested rate (300, 100, 30, 10 g/ha) with 80% or greater inhibition; approx. 14 days after treating; 18/13° C.
Outline: (§1)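 GR80 values derive from percent inhibition relative to untreated plants, read roughly 14 days after sowing and pre-emergence soil-surface treatment (compound in 50:50 acetone/water; rates typically 10, 30, 100, 300 g/ha). Warm-season weeds grew at 30/21° C day/night, cool-season ones at 18/13° C; an asterisk marks activity without reaching 80% at the highest rate.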

[2] = test system: DIGSA (large crabgrass); experiment: Pre-emergence herbicidal activity, warm season; type: in vivo, Digitaria sanguinalis; settings: GR80 = lowest tested rate (300, 100, 30, 10 g/ha) with 80% or greater inhibition; approx. 14 days after treating; 30/21° C.
Procedure: (§2) Tables 5 to 8 summarize results of tests conducted as described below to determine the pre-emergence herbicidal activity, in the form of a GR80 value, of illustrative compounds of this invention. […] Compounds of the invention were typically applied at rates of 300, 100, 30, and 10 g/ha. Where herbicidal activity was evident but 80% inhibition was not achieved at the highest rate tested, an asterisk (*) is shown in the following tables.
(§3) The pre-emergence tests were conducted by the following procedure. Topsoil was sieved to pass through a 1.27 cm screen. Fertilizer was added to the topsoil and the mixture was then sterilized by heating. The topsoil mixture was placed in a pot and compacted to a depth of 1.0 to 1.25 cm from the top of the pot. Seeds of each of several monocotyledonous and dicotyledonous annual plant species were placed on top of the soil. Additional soil was subsequently placed over the seeds to level-fill the pot. A known amount of each test compound dissolved or suspended in an appropriate organic solvent was diluted with a 50:50 mix of acetone and water and applied to the surface of the soil. After treatment the plants were placed in a greenhouse where they received 0.64 cm of overhead irrigation. All subsequent watering consisted of a light overhead mist and/or subirrigation as needed for germination and growth. Tables 5 and 6 below relate to warm season plant species which were placed after pre-emergence treatment in a greenhouse with a 30/21° C. day/night temperature regime. Tables 7 and 8 below relates to cool season plant species placed after pre-emergence treatment in a greenhouse or growth chamber with an 18/13° C. day/night temperature regime.
(§4) Approximately 14 days after planting and treating, the plants were observed and herbicidal efficacy recorded as percent inhibition by comparison with untreated plants.
(§5) The plant species usually regarded as weeds which were utilized in the tests are identified in the tables below according to the following legend, in which “d” indicates a dicotyledonous species and “m” a monocotyledonous species. All monocotyledonous species included in the tests herein are grasses.

[3] = test system: AMARE (redroot pigweed); experiment: Pre-emergence herbicidal activity, warm season; type: in vivo, Amaranthus retroflexus; settings: GR80 = lowest tested rate (300, 100, 30, 10 g/ha) with 80% or greater inhibition; approx. 14 days after treating; 30/21° C.
Procedure: as §2, §3, §4, §5

[4] = test system: SINAR (wild mustard); experiment: Pre-emergence herbicidal activity, cool season; type: in vivo, Sinapis arvensis; settings: lowest tested rate with 80% or greater inhibition; rates 300, 100, 30, 10 g/ha; about 14 days
Outline: as §1

[5] = test system: ALOMY (blackgrass); experiment: Pre-emergence herbicidal activity, cool season; type: in vivo, Alopecurus myosuroides; settings: GR80 = lowest tested rate (300, 100, 30, 10 g/ha) with 80% or greater inhibition; approx. 14 days after treating; 18/13° C.
Procedure: as §2, §3, §4, §5

[6] = test system: PANMI (wild proso millet); experiment: Pre-emergence herbicidal activity, warm season; type: in vivo, Panicum miliaceum; settings: GR80 = lowest tested rate (300, 100, 30, 10 g/ha) with 80% or greater inhibition; approx. 14 days after treating; 30/21° C.
Outline: (§6)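 GR80 values, pre-emergence, soil applied at 300, 100, 30, 10 g/ha. Warm regime 30/21 °C: PANMI, DIGSA. Cool regime 18/13 °C: ALOMY, POLCO. Rating ~14 d, % inhibition vs untreated.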

[7] = test system: LAMPU (purple deadnettle); experiment: Pre-emergence herbicidal activity, cool season; type: in vivo, Lamium purpureum; settings: lowest tested rate with 80% or greater inhibition; rates 300, 100, 30, 10 g/ha; about 14 days
Outline: as §1

[8] = test system: SASKR (russian thistle); experiment: Pre-emergence herbicidal activity, cool season; type: in vivo, Salsola kali; settings: lowest tested rate with 80% or greater inhibition; rates 300, 100, 30, 10 g/ha; about 14 days
Outline: as §1

[9] = test system: BRAPP (broadleaf signalgrass); experiment: Pre-emergence herbicidal activity, warm season; type: in vivo, Brachiaria platyphylla; settings: GR80 = lowest tested rate (300, 100, 30, 10 g/ha) with 80% or greater inhibition; approx. 14 days after treating; 30/21° C.
Procedure: as §2, §3, §4, §5

[10] = test system: POLCO (wild buckwheat); experiment: Pre-emergence herbicidal activity, cool season; type: in vivo, Polygonum convolvulus; settings: lowest tested rate with 80% or greater inhibition; rates 300, 100, 30, 10 g/ha; about 14 days
Outline: as §6

[11] = test system: LOLMG (annual ryegrass); experiment: Pre-emergence herbicidal activity, cool season; type: in vivo, Lolium multiflorum; settings: GR80 = lowest tested rate (300, 100, 30, 10 g/ha) with 80% or greater inhibition; approx. 14 days after treating; 18/13° C.
Procedure: as §2, §3, §4, §5

[12] = test system: GALAP (catchweed bedstraw); experiment: Pre-emergence herbicidal activity, cool season; type: in vivo, Galium aparine; settings: lowest tested rate with 80% or greater inhibition; rates 300, 100, 30, 10 g/ha; about 14 days
Outline: as §1

[13] = test system: VERPE (creeping speedwell); experiment: Pre-emergence herbicidal activity, cool season; type: in vivo, Veronica persicaria; settings: lowest tested rate with 80% or greater inhibition; rates 300, 100, 30, 10 g/ha; about 14 days
Outline: as §1

[14] = test system: STEME (common chickweed); experiment: Pre-emergence herbicidal activity, cool season; type: in vivo, Stellaria media; settings: lowest tested rate with 80% or greater inhibition; rates 300, 100, 30, 10 g/ha; about 14 days
Outline: as §1

[15] = test system: AGSST (creeping bentgrass); experiment: Pre-emergence herbicidal activity, cool season; type: in vivo, Agrostis stolonifera; settings: GR80 = lowest tested rate (300, 100, 30, 10 g/ha) with 80% or greater inhibition; approx. 14 days after treating; 18/13° C.
Outline: as §1

[16] = test system: SOLNI (black nightshade); experiment: Pre-emergence herbicidal activity, warm season; type: in vivo, Solanum nigrum; settings: GR80 = lowest tested rate (300, 100, 30, 10 g/ha) with 80% or greater inhibition; approx. 14 days after treating; 30/21° C.
Procedure: as §2, §3, §4, §5

[17] = test system: SETFA (giant foxtail); experiment: Pre-emergence herbicidal activity, warm season; type: in vivo, Setaria faberi; settings: GR80 = lowest tested rate (300, 100, 30, 10 g/ha) with 80% or greater inhibition; approx. 14 days after treating; 30/21° C.
Procedure: as §2, §3, §4, §5

[18] = test system: CIRAR (canada thistle (seedling)); experiment: Pre-emergence herbicidal activity, warm season; type: in vivo, Cirsium arvense; settings: GR80 = lowest tested rate (300, 100, 30, 10 g/ha) with 80% or greater inhibition; approx. 14 days after treating; 30/21° C.
Procedure: as §2, §3, §4, §5

[19] = test system: POROL (common purslane); experiment: Pre-emergence herbicidal activity, warm season; type: in vivo, Portulaca oleracea; settings: GR80 = lowest tested rate (300, 100, 30, 10 g/ha) with 80% or greater inhibition; approx. 14 days after treating; 30/21° C.
Procedure: as §2, §3, §4, §5

[20] = test system: CHEAL (common lambsquarters); experiment: Pre-emergence herbicidal activity, warm season; type: in vivo, Chenopodium album; settings: GR80 = lowest tested rate (300, 100, 30, 10 g/ha) with 80% or greater inhibition; approx. 14 days after treating; 30/21° C.
Procedure: as §2, §3, §4, §5

[21] = test system: SORHA (johnsongrass (seedling)); experiment: Pre-emergence herbicidal activity, warm season; type: in vivo, Sorghum halepense; settings: GR80 = lowest tested rate (300, 100, 30, 10 g/ha) with 80% or greater inhibition; approx. 14 days after treating; 30/21° C.
Procedure: as §2, §3, §4, §5

[22] = test system: ECHCG (barnyardgrass); experiment: Pre-emergence herbicidal activity, warm season; type: in vivo, Echinochloa crus-galli; settings: GR80 = lowest tested rate (300, 100, 30, 10 g/ha) with 80% or greater inhibition; approx. 14 days after treating; 30/21° C.
Outline: as §1

[23] = test system: SORVU (shattercane); experiment: Pre-emergence herbicidal activity, warm season; type: in vivo, Sorghum vulgare; settings: GR80 = lowest tested rate (300, 100, 30, 10 g/ha) with 80% or greater inhibition; approx. 14 days after treating; 30/21° C.
Procedure: as §2, §3, §4, §5

[24] = test system: ABUTH (velvetleaf); experiment: Pre-emergence herbicidal activity, warm season; type: in vivo, Abutilon theophrasti; settings: GR80 = lowest tested rate (300, 100, 30, 10 g/ha) with 80% or greater inhibition; approx. 14 days after treating; 30/21° C.
Procedure: as §2, §3, §4, §5

| SMILES | Pre-emergence activity (GR80) SETVI [1] | Pre-emergence activity (GR80) DIGSA [2] | Pre-emergence activity (GR80) AMARE [3] | Pre-emergence activity GR80, SINAR [4] | Pre-emergence activity (GR80) ALOMY [5] | Pre-emergence activity (GR80) PANMI [6] | Pre-emergence activity GR80, LAMPU [7] | Pre-emergence activity GR80, SASKR [8] | Pre-emergence activity (GR80) BRAPP [9] | Pre-emergence activity GR80, POLCO [10] | Pre-emergence activity (GR80) LOLMG [11] | Pre-emergence activity GR80, GALAP [12] | Pre-emergence activity GR80, VERPE [13] | Pre-emergence activity GR80, STEME [14] | Pre-emergence activity (GR80) AGSST [15] | Pre-emergence activity (GR80) SOLNI [16] | Pre-emergence activity (GR80) SETFA [17] | Pre-emergence activity (GR80) CHEAL [20] | Pre-emergence activity (GR80) SORHA [21] | Pre-emergence activity (GR80) ECHCG [22] | further results |
| --- | --- | --- | --- | --- | --- | --- | --- | --- | --- | --- | --- | --- | --- | --- | --- | --- | --- | --- | --- | --- | --- |
| CCCN(CC)C(=O)n1cnc(S(=O)(=O)C(F)F)n1 [Example 28] | 30 g/ha | 300 g/ha | 300 g/ha | 10 g/ha | 30 g/ha | 300 g/ha | 30 g/ha | 30 g/ha | 300 g/ha | [empty] | 300 g/ha | 30 g/ha | 10 g/ha | 10 g/ha | 30 g/ha | – | – | – | – | – | – |
| CN(C(=O)n1cnc(S(=O)(=O)C(F)F)n1)C1CCCCC1 [Example 32] | 100 g/ha | 300 g/ha | 300 g/ha | 100 g/ha | 300 g/ha | 300 g/ha | [empty] | [empty] | – | [empty] | 300 g/ha | 100 g/ha | 300 g/ha | 300 g/ha | 300 g/ha | 300 g/ha | 300 g/ha | 300 g/ha | 30 g/ha | 300 g/ha | Pre-emergence activity (GR80) CIRAR [18]: 300 g/ha; Pre-emergence activity (GR80) POROL [19]: 100 g/ha; Pre-emergence activity (GR80) SORVU [23]: 300 g/ha |
| CCCN(CC)C(=O)n1cnc(S(=O)(=O)C(F)(F)Br)n1 [Example 39] | 100 g/ha | – | 300 g/ha | 30 g/ha | 300 g/ha | 300 g/ha | 30 g/ha | 100 g/ha | – | 100 g/ha | 300 g/ha | 100 g/ha | 10 g/ha | 30 g/ha | 30 g/ha | – | 100 g/ha | 300 g/ha | 100 g/ha | 300 g/ha | – |
| CN(Cc1ccccc1)C(=O)n1cnc(S(=O)(=O)C(F)(F)Br)n1 [Example 44] | – | – | – | [empty] | – | 300 g/ha | [empty] | [empty] | – | [empty] | – | [empty] | 100 g/ha | [empty] | – | 30 g/ha | – | – | – | – | Pre-emergence activity (GR80) ABUTH [24]: 300 g/ha |
| CCSC(F)(F)S(=O)(=O)c1ncn(C(=O)N(C)C2CCCCC2)n1 [Example 55] | 300 g/ha | 300 g/ha | – | [empty] | – | 100 g/ha | [empty] | [empty] | 300 g/ha | 300 g/ha | – | [empty] | [empty] | [empty] | 300 g/ha | 300 g/ha | 300 g/ha | 300 g/ha | 300 g/ha | 300 g/ha | Pre-emergence activity (GR80) ABUTH [24]: 300 g/ha; Pre-emergence activity (GR80) POROL [19]: 300 g/ha; Pre-emergence activity (GR80) SORVU [23]: 300 g/ha |
